Reference: patent US11590119B2, “(S)-2-(1-(5-(cyclohexylcarbamoyl)-6-(propylthio)pyridin-2-yl)piperidin-3-yl)acetic acid for use in medicine” (University of Leeds, priority 2019, dated 2023)

Experiments:
Assay type in all cases: in vivo, human
stratum corneum = test: Phase II trial in T2DM: N tapes, tape stripping to a pre-specified TEWL; conditions: after 4 weeks treatment
Description: FIG. 16: The number of tapes (N tapes) required to achieve the equivalent amount of barrier disruption in the placebo (PBO) and AZD4017 (AZD) treated arms at day 28. Confidence intervals are presented to the right.
A further way in which the skin quality of patients treated with AZD4017 was evaluated involved stripping of the skin with adhesive patches to achieve a consistent damage level as established by transepidermal water loss (TEWL), a measure of the permeability of the skin barrier.
In more detail, evaporation of water from the skin occurs as part of normal skin metabolism. As barrier function is disrupted, water loss increases. The Tewameter® TM 300 probe (commercially available from Courage and Khazaka Electronic GmbH, 50829 Köln, Germany) measures the density gradient of the water evaporation from the skin by two pairs of sensors (temperature and relative humidity) inside a hollow cylinder. […]
Adhesive patches (D-Squame® tapes, from D-Squame, Clinical and Derm LLC, Dallas, Tex., www.clinicalandderm.com) were used to gently remove the stratum corneum layers to a pre-specified TEWL (trans-epidermal water loss) rate from the lower inner forearm at Visits 1 and 4. […] At day, after 4 weeks treatment, the number of tapes required to induce the same level of damage on the skin as evaluated by this technique was 43% higher in the 11β-HSD1 inhibitor treated cohort than in the placebo arm.

skin wounds = test: Phase II trial in T2DM: wound gap diameter of punch biopsy wounds by OCT
Text: FIG. 13: Wound healing in placebo (PBO) and AZD4017 (AZD) treated cohorts as evidenced by wound gap diameter of wounds inflicted at days 0 and 28 at days 2 and 30, respectively. Confidence intervals for measurements are provided to right.
Both biopsies from visit 1 (day 0) and two biopsies from visit 4 (day 28) were imaged by OCT at Visits 2, 3, 5 and 6 as appropriate. Optical coherence tomography OCT (Greaves, N. S., et al., Br J Dermatol, 2014. 170(4): p. 840-50) has proven a useful tool for the evaluation of wound re-epithelialization. OCT uses light to capture sub-micrometre resolution, three-dimensional images from within biological tissue (e.g. skin). The method is based on low-coherence interferometry, typically employing near-infrared light. The use of relatively long wavelength light allows it to penetrate 1-2 mm into the tissue. In addition to wound diameter, collected images capture information on vascularization.
The procedure takes approximately 2 minutes using a small probe applied to the skin. The procedure is non-invasive and pain-free. Image files (including enrolment number, visit number and date) were stored on the OCT machine until the end of the trial, then transferred to a secure server, compiled, analysed and values for wound diameter entered into the case report form (CRF).
The initial wounds created by puncture at days 0 and 28, respectively, were 3 mm in diameter. Treatment with AZD4017 (400 mg, twice daily oral) was initiated on day 0 and maintained for 35 days.
Thus administration of AZD4017 […] delivered a significant improvement in the rate of wound healing.

epidermis = test: Phase II trial in T2DM: epidermal thickness by OCT; conditions: day 35, 400 mg twice daily
Description: FIG. 14: Epidermal thickness (μm) in the placebo (PBO) and AZD4017 (AZD) treated arms after 35 days.
As noted above, glucocorticoid therapy is known to cause skin thinning and dispose patients to the development of chronic wounds. Epidermal thickness was measured by OCT at Visits 1 (day 0) and 6 (day 35, i.e. after 35 days of treatment with 400 mg AZD4017, twice daily). Results from these measurements are presented alongside the confidence interval in the measurements at day 35.

In the case of `CCCSc1nc(N2CCC[C@@H](CC(=O)O)C2)ccc1C(=O)NC1CCCCC1` [AZD4017, (S)-2-(1-(5-(cyclohexylcarbamoyl)-6-(propylthio)pyridin-2-yl)piperidin-3-yl)acetic acid], the “number of tapes required to induce the same level of damage, higher than in the placebo arm” value (stratum corneum) is reported as 43%, the “mean wound gap diameter” value (skin wounds; day 2, 3 mm wound inflicted at day 0, 400 mg twice daily oral from day 0) is reported as 0.98 mm and the “improvement in the extent of healing relative to placebo arm” value (skin wounds; day 2, wound inflicted at day 0) is reported as 35%. For the same molecule, the mean wound gap (skin wounds; day 30, 3 mm wound inflicted at day 28, after 4 weeks pretreatment) was 0.67 mm, the “improvement in the extent of healing relative to placebo arm” value (skin wounds; day 30, wound inflicted at day 28) was 55% and the “epidermal depth greater than the placebo arm” value (epidermis) was 5.58 μm.
